pKd: −log10 of the molar value.

For one assay, the system named is hepatoma cells. In words: Hepatoma solid tumor model in strain 13 guinea pigs: tumor weight and macrophage infiltration. The format is in vivo, guinea pig. As to conditions: compared to control Group 1 (PBS); for numbers of esterase-positive cells in tumors (macrophage infiltration): 1 mg per animal ip on day 5, sacrifice on day 15, non-specific esterase stain; for mean tumor weight: 1 mg per animal ip on day 5, tumors excised and weighed on day 15. As for the experimental part:
Hepatoma cells are propagated by ip (intraperitoneal) passage in weanling strain 13 male guinea pigs (NIH). Single-cell suspensions are prepared by enzymatic digestion as described. Strain 13 male guinea pigs are injected ip with a suspension of approx. 2*10^6 hepatoma cells to produce solid tumors (day 1). Animals are grouped into 4 groups (six animals each) and are given ip injections on day 5: Phosphate-buffered saline (PBS) (Group 1; control); 1 mg peptide NH2-AWYPLPP-COOH per animal (Group 2; binder only); 1 mg peptide fMLP-COOH per animal (Group 3; effector only); 1 mg compound fMLPK-(NH2-AWYPLPP)-GGGK-(NH2-AWYPLPP)-1-COOH per animal (Group 4). Animals are sacrificed on day 15 and tumors are excised and weighed. In addition macrophage infiltration of tumors is evaluated. Therefore, tumors are fixed in phosphate-buffered formalin and embedded in paraffin blocks. Sections (5 μm) are cut and stained for non-specific esterase activity. Esterase-positive cells are quantified with an image analyser (Optomax, Inc.).

Another assay has as its target Her-2 (human ErbB-2) (Homo sapiens, UniProt P04626). As to conditions: target Her-2 (human ErbB-2); Karasseva et al, 2002; read-out: Affinity (kD); cited from earlier work.
The target of assay [1] is Glucose-regulated protein 78 (GRP78) (Homo sapiens, UniProt P11021). To be noted: target GRP78; Arap et al, 2004; read-out: Affinity (kD); cited from earlier work.
In a further assay the target is FGF receptor. To be noted: target FGF receptor; if multivalent; Maruta et al, 2002; read-out: Affinity (kD); cited from earlier work.
A further assay has as its target EGFRvIII (Homo sapiens, UniProt P00533, DELINS30-297G). To be noted: target EGFRvIII; Campa et al 2002; read-out: Affinity (kD); cited from earlier work.
The target in a further assay is EGFR (Homo sapiens, UniProt P00533). As to conditions: target EGFR; Li et al 2005; read-out: Affinity (kD); cited from earlier work.
Assay [2] concerns human neuroblastoma cells WAC 2; breast cancer cells MDA-MB-435. To be noted: WAC 2 neuroblastoma cells; MDA-MB-435 breast cancer cells; Askoxylakis et al; read-out: Affinity (kD); cited from earlier work.

Chain of Glucose-regulated protein 78 (GRP78) (P11021 19-654, species assumed): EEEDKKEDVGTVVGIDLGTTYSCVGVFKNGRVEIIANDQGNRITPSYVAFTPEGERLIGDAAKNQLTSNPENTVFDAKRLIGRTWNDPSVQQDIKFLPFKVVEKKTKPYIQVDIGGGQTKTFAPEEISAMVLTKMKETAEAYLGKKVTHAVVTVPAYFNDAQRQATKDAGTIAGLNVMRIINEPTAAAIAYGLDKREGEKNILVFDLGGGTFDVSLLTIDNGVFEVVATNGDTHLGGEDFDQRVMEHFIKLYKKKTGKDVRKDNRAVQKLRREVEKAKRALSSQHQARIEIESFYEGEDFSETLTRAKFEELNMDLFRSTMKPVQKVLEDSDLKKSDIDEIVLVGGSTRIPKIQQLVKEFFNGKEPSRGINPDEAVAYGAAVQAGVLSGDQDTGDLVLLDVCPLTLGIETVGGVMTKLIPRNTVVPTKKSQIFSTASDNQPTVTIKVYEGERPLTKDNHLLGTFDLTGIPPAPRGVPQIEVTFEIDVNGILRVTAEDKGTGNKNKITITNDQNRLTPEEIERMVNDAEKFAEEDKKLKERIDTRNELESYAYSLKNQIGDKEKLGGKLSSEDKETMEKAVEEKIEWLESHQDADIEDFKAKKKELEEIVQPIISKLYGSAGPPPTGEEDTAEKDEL

For the substance fMLP-COOH [effector], in the assay on hepatoma cells, the “numbers of esterase-positive cells in tumors (macrophage infiltration)” value (“numbers of esterase-positive cells” below) is “slightly increased” and the mean tumor weight result is “no or only marginal effect”. A word on the pKd: it is the Kd on a negative log10 scale, so that one unit is a factor of ten. For the substance KCCYSL, the pKd at Her-2 (human ErbB-2) was 4.52. For WDLAWMFRLPVG, in assay [1], the pKd is 7.30 to 8.30. Turning to “NH2-AWYPLPP-COOH (H-AWYPLPP-OH) [binder]”, in the assay on hepatoma cells, the “numbers of esterase-positive cells” value was “comparable to Group 1” and the mean tumor weight result is “no or only marginal effect”. In the case of MQLPLAT, at FGF receptor, the negative-log Kd (pKd) was 9.60. In the case of “fMLPK-(NH2-AWYPLPP)-GGGK-(NH2-AWYPLPP)-I-COOH [compound]”, in the assay with hepatoma cells, the “numbers of esterase-positive cells” value is on record as “significantly increased” and the mean tumor weight result is recorded as “significantly decreased”.

Turning to YHWYGYTPQNVI, the negative logarithm of the Kd (pKd) is 7.52 on EGFRvIII and 7.66 at EGFR. As for WIFPWIQL, the pKd in assay [1] is 7.30 to 8.30. On to VPWMEPAYQRFL, for which, in assay [2], the negative-log Kd (pKd) was 6.22.
